Data on 4 compounds can be found in PubChem BioAssay AID1259407 (Chemical Carcinogenesis Research Information System (CCRIS), 2018).

The series has as its system CCRIS mutagenicity, Ames/micronucleus/aberration tests. In words: CCRIS mutagenicity studies.
Where [1] appears, read: Test System: AMES SALMONELLA TYPHIMURIUM, Strain/Indicator: TA97, Metabolic Activation: NONE, Method: PREINCUBATION
Where [2] appears, read: Test System: AMES SALMONELLA TYPHIMURIUM, Strain/Indicator: TA98, Metabolic Activation: NONE, Method: STANDARD PLATE.
[3] abbreviates: Test System: AMES SALMONELLA TYPHIMURIUM, Strain/Indicator: TA100, Metabolic Activation: NONE, Method: STANDARD PLATE.

Structures are written as SMILES. Calls of active or inactive are those of the source. The rule behind the calls is not given here.

On to `CCCCCCCC/C=C\CCCCCCCC(=O)O`, for which the mutagenic call was “inactive; negative” (Test System: AMES SALMONELLA TYPHIMURIUM, Strain/Indicator: TA97, Metabolic Activation: HAMSTER, LIVER, S-9, AROCLOR 1254 (10 OR 30%), Method: PREINCUBATION); “inactive; negative” under setting [1]; “inactive; negative” (Test System: AMES SALMONELLA TYPHIMURIUM, Strain/Indicator: TA97, Metabolic Activation: RAT, LIVER, S-9, AROCLOR 1254 (10 OR 30%), Method: PREINCUBATION); “inactive; negative” (Test System: AMES SALMONELLA TYPHIMURIUM, Strain/Indicator: TA98, Metabolic Activation: HAMSTER, LIVER, S-9, AROCLOR 1254 (10 OR 30%), Method: PREINCUBATION); “inactive; negative” (Test System: AMES SALMONELLA TYPHIMURIUM, Strain/Indicator: TA98, Metabolic Activation: NONE, Method: PREINCUBATION); “inactive; negative” under setting [2]. Further, the mutagenic call reads like this: (Test System: AMES SALMONELLA TYPHIMURIUM, Strain/Indicator: TA98, Metabolic Activation: RAT, LIVER, S-9, AROCLOR 1254 (10 OR 30%), Method: PREINCUBATION) “inactive; negative”; (Test System: AMES SALMONELLA TYPHIMURIUM, Strain/Indicator: TA98, Metabolic Activation: RAT, LIVER, S-9, KC 500, Method: PREINCUBATION) “inactive; negative”; (Test System: AMES SALMONELLA TYPHIMURIUM, Strain/Indicator: TA98, Metabolic Activation: S-9, PHENOBARBITAL, Method: STANDARD PLATE) “inactive; negative”; (Test System: AMES SALMONELLA TYPHIMURIUM, Strain/Indicator: TA100, Metabolic Activation: HAMSTER, LIVER, S-9, AROCLOR 1254 (10 OR 30%), Method: PREINCUBATION) “inactive; negative”; (Test System: AMES SALMONELLA TYPHIMURIUM, Strain/Indicator: TA100, Metabolic Activation: NONE, Method: PREINCUBATION) “inactive; negative”; under setting [3], “inactive; negative”. For the same compound, the mutagenic call runs as follows: (Test System: AMES SALMONELLA TYPHIMURIUM, Strain/Indicator: TA100, Metabolic Activation: RAT, LIVER, S-9, AROCLOR 1254 (10 OR 30%), Method: PREINCUBATION) “inactive; negative”; (Test System: AMES SALMONELLA TYPHIMURIUM, Strain/Indicator: TA100, Metabolic Activation: RAT, LIVER, S-9, KC 500, Method: PREINCUBATION) “inactive; negative”; (Test System: AMES SALMONELLA TYPHIMURIUM, Strain/Indicator: TA100, Metabolic Activation: S-9, PHENOBARBITAL, Method: STANDARD PLATE) “inactive; negative”; (Test System: AMES SALMONELLA TYPHIMURIUM, Strain/Indicator: TA1535, Metabolic Activation: HAMSTER, LIVER, S-9, AROCLOR 1254 (10 OR 30%), Method: PREINCUBATION) “inactive; negative”; (Test System: AMES SALMONELLA TYPHIMURIUM, Strain/Indicator: TA1535, Metabolic Activation: NONE, Method: PREINCUBATION) “inactive; negative”; (Test System: AMES SALMONELLA TYPHIMURIUM, Strain/Indicator: TA1535, Metabolic Activation: NONE, Method: STANDARD PLATE) “inactive; negative”. The mutagenic call was “inactive; negative” (Test System: AMES SALMONELLA TYPHIMURIUM, Strain/Indicator: TA1535, Metabolic Activation: RAT, LIVER, S-9, AROCLOR 1254 (10 OR 30%), Method: PREINCUBATION); “inactive; negative” (Test System: AMES SALMONELLA TYPHIMURIUM, Strain/Indicator: TA1535, Metabolic Activation: RAT, LIVER, S-9, KC 500, Method: PREINCUBATION); “inactive; negative” (Test System: AMES SALMONELLA TYPHIMURIUM, Strain/Indicator: TA1535, Metabolic Activation: S-9, PHENOBARBITAL, Method: STANDARD PLATE); “inactive; negative” (Test System: AMES SALMONELLA TYPHIMURIUM, Strain/Indicator: TA1537, Metabolic Activation: NONE, Method: PREINCUBATION); “inactive; negative” (Test System: AMES SALMONELLA TYPHIMURIUM, Strain/Indicator: TA1537, Metabolic Activation: NONE, Method: STANDARD PLATE); “inactive; negative” (Test System: AMES SALMONELLA TYPHIMURIUM, Strain/Indicator: TA1537, Metabolic Activation: RAT, LIVER, S-9, KC 500, Method: PREINCUBATION). The mutagenic call was “inactive; negative” (Test System: AMES SALMONELLA TYPHIMURIUM, Strain/Indicator: TA1537, Metabolic Activation: S-9, PHENOBARBITAL, Method: STANDARD PLATE); “inactive; negative” (Test System: AMES SALMONELLA TYPHIMURIUM, Strain/Indicator: TA1538, Metabolic Activation: NONE, Method: PREINCUBATION); “inactive; negative” (Test System: AMES SALMONELLA TYPHIMURIUM, Strain/Indicator: TA1538, Metabolic Activation: RAT, LIVER, S-9, KC 500, Method: PREINCUBATION); “inactive; negative” (Test System: E. COLI, Strain/Indicator: WP2 UVRA, Metabolic Activation: NONE, Method: PREINCUBATION); “inactive; negative” (Test System: E. COLI, Strain/Indicator: WP2 UVRA, Metabolic Activation: NONE, Method: STANDARD PLATE); “inactive; negative” (Test System: E. COLI, Strain/Indicator: WP2 UVRA, Metabolic Activation: RAT, LIVER, S-9, KC 500, Method: PREINCUBATION). Also, for the setting “Test System: E. COLI, Strain/Indicator: WP2 UVRA, Metabolic Activation: S-9, PHENOBARBITAL, Method: STANDARD PLATE”, the mutagenic call was “inactive; negative”.

As for `Nc1ccc2c(n1)[nH]c1ccccc12`, the mutagenic call by setting is: (Test System: AMES SALMONELLA TYPHIMURIUM, Strain/Indicator: TA98, Metabolic Activation: MONKEY, LIVER, S-9, Method: PREINCUBATION) “active; positive”; (Test System: AMES SALMONELLA TYPHIMURIUM, Strain/Indicator: TA98, Metabolic Activation: RAT, LIVER, S-9, AROCLOR 1254, Method: PREINCUBATION) “active; positive”; (Test System: AMES SALMONELLA TYPHIMURIUM, Strain/Indicator: TA100, Metabolic Activation: RAT, LIVER, S-9, AROCLOR 1254, Method: PREINCUBATION) “active; positive”; (Test System: AMES SALMONELLA TYPHIMURIUM, Strain/Indicator: YG1019, Metabolic Activation: RAT LIVER S-9, AROCLOR, Method: PREINCUBATION) “active; positive”.

In the case of `ONc1ccc(Cl)c(Cl)c1`, the mutagenic call was “inactive; negative” (Test System: AMES SALMONELLA TYPHIMURIUM, Strain/Indicator: TA97, Metabolic Activation: NONE, Method: STANDARD PLATE); “inactive; negative” under setting [2]; “inactive; negative” under setting [3]; “inactive; negative” (Test System: AMES SALMONELLA TYPHIMURIUM, Strain/Indicator: TA104, Metabolic Activation: NONE, Method: STANDARD PLATE); “inactive; negative” (Test System: CHINESE HAMSTER OVARY, Strain/Indicator: CHO-K1-BH4 (HGPRT), Metabolic Activation: NONE).

Turning to `CCCCCCC(=O)OCC`, the mutagenic call under setting [1] is “inactive; negative”; the mutagenic call (Test System: AMES SALMONELLA TYPHIMURIUM, Strain/Indicator: TA97, Metabolic Activation: RAT, LIVER, S-9, AROCLOR 1254, Method: PREINCUBATION) was “inactive; negative”; the mutagenic call (Test System: AMES SALMONELLA TYPHIMURIUM, Strain/Indicator: TA102, Metabolic Activation: NONE, Method: PREINCUBATION) is “inactive; negative”; the mutagenic call (Test System: AMES SALMONELLA TYPHIMURIUM, Strain/Indicator: TA102, Metabolic Activation: RAT, LIVER, S-9, AROCLOR 1254, Method: PREINCUBATION) is “inactive; negative”.
